Laboratory results reported in PMC6522510 (Nature Communications, 2019).
Where two headings read alike, the source gives them in different places.

Tests used:
CMS = experiment: Secondary dose-response HTS, Cell Titer Glo; format: cell-based, human; settings: for EC50: Homo sapiens, HTS
ML2 = experiment: Secondary dose-response HTS, Cell Titer Glo; format: cell-based, human; settings: ML-2; for EC50: Homo sapiens
CHRF288-11 = experiment: Secondary dose-response HTS, Cell Titer Glo; format: cell-based, human; settings: for EC50: Homo sapiens
M07e = experiment: Secondary dose-response HTS, Cell Titer Glo; format: cell-based, human; settings: for EC50: Homo sapiens, M-07e
MOLM-13 = experiment: Secondary dose-response HTS, Cell Titer Glo; format: cell-based, human; settings: MOLM-13; for EC50: Homo sapiens
MV4-11 [1] = experiment: Secondary dose-response HTS, Cell Titer Glo; format: cell-based, human; settings: MV4-11; for EC50: Homo sapiens
U937 = experiment: Secondary dose-response HTS, Cell Titer Glo; format: cell-based, human; settings: for EC50: Homo sapiens, U-937
CMK = experiment: Secondary dose-response HTS, Cell Titer Glo; format: cell-based, human; settings: CMK; for EC50: Homo sapiens
MV4-11 [2] = experiment: cells; set-up: species or system AML cell lines (8); Secondary HTS, 10-point dose-response in triplicate, Cell Titer Glo viability, four-parameter fit EC50; settings: Homo sapiens, MV4-11, 72 h, read-out: MV4-11
[3] = secondary high-throughput screen, CMS
[4] = secondary high-throughput screen
[5] = secondary high-throughput screen, CHRF288-11
[6] = secondary high-throughput screen, M07e
[7] = secondary high-throughput screen, U937
[8] = secondary high-throughput screen, CMS, read-out: average effective concentration, CMS
[9] = secondary high-throughput screen, read-out: average effective concentration, ML-2
[10] = HTS, secondary high-throughput screen, CHRF288-11, read-out: average effective concentration, CHRF288-11
[11] = secondary high-throughput screen, M07e, read-out: average effective concentration, M07e
[12] = secondary high-throughput screen, read-out: average effective concentration, MOLM-13
[13] = secondary high-throughput screen, U937, read-out: average effective concentration, U937
[14] = read-out: average effective concentration, CMS
[15] = read-out: average effective concentration, CMK
[16] = secondary HTS, 72 h, average of triplicate, read-out: EC50 ML2
[17] = secondary HTS, 72 h, average of triplicate, read-out: EC50 CHRF288-11
[18] = secondary HTS, 72 h, average of triplicate, read-out: EC50 M07e
[19] = secondary HTS, 72 h, average of triplicate, read-out: EC50 U937
[20] = secondary high-throughput screen, read-out: average effective concentration, CMK

| EC50 (MOLM-13; [12]) | EC50 (U937; [13]) | EC50 (MV4-11 [2]) | Compound | average effective concentration, CMS (CMS; [3]) | average effective concentration, ML-2 (ML2; [4]) | average effective concentration, CHRF288-11 (CHRF288-11; [5]) | average effective concentration, M07e (M07e; [6]) | average effective concentration, MOLM-13 (MOLM-13; [4]) | average effective concentration, MV4-11 (MV4-11 [1]; [4]) | average effective concentration, U937 (U937; [7]) | average effective concentration, CMK (CMK; [4]) | EC50 (ML2; [9]) | EC50 (CHRF288-11; [10]) | EC50 (M07e; [11]) | also measured |
| --- | --- | --- | --- | --- | --- | --- | --- | --- | --- | --- | --- | --- | --- | --- | --- |
|  |  |  | N[C@@H]1C[C@H]1c1ccccc1 (racemic) [TRANYLCYPROMINE] | Inactive | Inactive | Inactive | Inactive | Inactive | Inactive | Inactive |  |  |  |  |  |
|  |  |  | N[C@@H]1CCCN(c2c(/C=C3\SC(=O)NC3=O)cccc2-c2ccccc2)C1 [AZD1208] | Inactive | Inactive |  | Inactive | Inactive | Inactive | Inactive | Inactive |  |  |  |  |
| 1300 nM | 1000 nM |  | C[C@H]1[C@H](OC(=O)CCC(=O)O)O[C@@H]2O[C@@]3(C)CC[C@H]4[C@H](C)CC[C@@H]1[C@@]24OO3 [Artesunate, reference compound] |  |  |  |  |  |  |  |  | 4600 nM | 8600 nM | 1200 nM | EC50 (CMS; [8]): 5900 nM |
| 270 nM | 170 nM | > 10000 nM | O=C(/C=C/c1cccc(S(=O)(=O)Nc2ccccc2)c1)NO [BELINOSTAT] |  |  |  |  |  |  |  |  | 350 nM | 240 nM | 190 nM | EC50 (CMS; [14]): 250 nM; EC50 (CMK; [15]): 14 nM |
| 5600 nM | 140 nM | > 10000 nM | C#Cc1cccc(Nc2ncnc3cc(OC)c(OCCCCCCC(=O)NO)cc23)c1 [CUDC-101] |  |  |  |  |  |  |  |  | 83 nM | 600 nM | 190 nM | EC50 (CMS; [14]): 780 nM; EC50 (CMK; [15]): 73 nM |
| 0.447 nM |  |  | COc1ccc(-c2nc(N3CCOCC3)c3sc(CN(C)c4ncc(C(=O)NO)cn4)cc3n2)cn1 [CUDC-907, reference compound] |  |  |  |  |  |  |  |  | 1.7 nM | 0.89 nM | 0.7 nM | EC50 (CMS; 72 h, read-out: EC50 CMS): 1 nM; EC50 (ML2; [16]): 2 nM; EC50 (CHRF288-11; [17]): 1 nM; EC50 (M07e; [18]): 1 nM; EC50 (MOLM-13; secondary HTS, 72 h, average of triplicate, read-out: EC50 MOLM-13): 0.4 nM; EC50 (CMK; 72 h, read-out: EC50 CMK): 2 nM; EC50 (CMK; [15]): 1.9 nM; EC50 (U937; [19]): 4 nM |
| 1200 nM | 7600 nM | > 10000 nM | N#CCNC(=O)c1ccc(-c2ccnc(Nc3ccc(N4CCOCC4)cc3)n2)cc1 [CYT-387] |  |  |  |  |  |  |  |  | > 10000 nM | 3800 nM | 270 nM | EC50 (CMS; [14]): 340 nM; EC50 (CMK; [15]): 1800 nM |
|  |  |  | CSCC[C@@H](NC(=O)c1ccc(CNCc2cnc[nH]2)cc1-c1ccccc1C)C(=O)OCc1ccccc1 [FTI-2628] | Inactive | Inactive | Inactive | Inactive | Inactive | Inactive |  | Inactive |  |  |  |  |
|  |  |  | COC(=O)[C@H](CC(C)C)NC(=O)c1ccc(NCc2cnc[nH]2)cc1-c1cccc2ccccc12 [GGTI-2147] | Inactive | Inactive | Inactive | Inactive |  | Inactive | Inactive | Inactive |  |  |  |  |
|  |  |  | CSCC[C@H](NC(=O)c1ccc(NC(=O)[C@@H](N)CS)cc1)C(=O)O [H-CYS-4-ABZ-MET-OH] | Inactive | Inactive | Inactive | Inactive | Inactive | Inactive |  | Inactive |  |  |  |  |
|  |  |  | CC(N[C@H]1C[C@@H]1c1ccccc1)c1ccc2c(c1)OCCO2 (stereo partly shown) [LSD1-C76] | Inactive | Inactive | Inactive | Inactive | Inactive |  | Inactive | Inactive |  |  |  |  |
|  | 80 nM |  | COc1ccc(-c2ccc3ncc4c(c3c2)n(-c2ccc(N3CCNCC3)c(C(F)(F)F)c2)c(=O)n4C)cn1 [NVP-BGT226, reference compound] |  |  |  |  |  |  |  |  | 230 nM | 55 nM | 250 nM | EC50 (CMS; 72 h, read-out: EC50 CMS): 10 nM; EC50 (CMS; [14]): 14 nM; EC50 (ML2; [16]): 230 nM; EC50 (CHRF288-11; [17]): 50 nM; EC50 (M07e; [18]): 250 nM; EC50 (MV4-11 [1]; secondary HTS, 72 h, average of triplicate, read-out: EC50 MV4-11): 50 nM; EC50 (MV4-11 [1]; secondary high-throughput screen, read-out: average effective concentration, MV4-11): 50 nM; EC50 (CMK; 72 h, read-out: EC50 CMK): 60 nM; EC50 (CMK; [15]): 63 nM; EC50 (U937; [19]): 80 nM |
| > 10000 nM | 5800 nM |  | Cc1c(-c2cnccn2)ssc1=S [OLTIPRAZ] |  |  |  |  |  |  |  |  | 3100 nM | > 10000 nM | > 10000 nM | EC50 (CMS; [8]): 10000 nM |
| 310 nM | 280 nM | > 10000 nM | C1=C/COCc2cc(ccc2OCCN2CCCC2)Nc2nccc(n2)-c2cccc(c2)COC/1 [PACRITINIB] |  |  |  |  |  |  |  |  | 130 nM | 2400 nM | 6700 nM | EC50 (CMS; [14]): 2000 nM; EC50 (CMK; [15]): 5000 nM |
|  |  |  | NC(=O)c1cccc2ncc(-c3ccc(Cl)cc3)nc12 [PARP INHIBITOR XII] | Inactive | Inactive | Inactive | Inactive |  | Inactive | Inactive | Inactive |  |  |  |  |
|  |  |  | O=C(CCN1CCN(C(=O)OCc2cc(Cl)cc(Cl)c2)CC1)c1ccc2[nH]c(=O)oc2c1 [PF-8380] | Inactive | Inactive | Inactive | Inactive |  | Inactive | Inactive | Inactive |  |  |  |  |
|  |  |  | CN(C)CC(=O)Nc1ccc2[nH]c(=O)c3ccccc3c2c1 [PJ34] | Inactive | Inactive | Inactive | Inactive |  | Inactive | Inactive | Inactive |  |  |  |  |
| 2000 nM | 3500 nM | > 10000 nM | CN(C)Cc1ccc(S(=O)(=O)n2ccc(/C=C/C(=O)NO)c2)cc1 [RESMINOSTAT] |  |  |  |  |  |  |  |  | 5000 nM | 4700 nM | 1100 nM | EC50 (CMS; [8]): 3100 nM; EC50 (CMK; [20]): 1700 nM |
|  |  |  | O=C(O)C(Cc1c[nH]c2ccccc12)N1C(=O)c2ccccc2C1=O (stereo not shown) [RG108] | Inactive | Inactive | Inactive | Inactive |  | Inactive | Inactive | Inactive |  |  |  |  |
|  |  |  | Fc1ccc(CNc2ncnc3ccc(F)cc23)cc1 [SPAUTIN-1] | Inactive | Inactive | Inactive |  | Inactive | Inactive |  | Inactive |  |  |  | average effective concentration, M07e (M07e; secondary high-throughput screen, […]): Inactive |
| 2200 nM | > 10000 nM | > 10000 nM | CC(=O)Nc1ccc(C(=O)Nc2ccccc2N)cc1 [TACEDINALINE] |  |  |  |  |  |  |  |  | > 10000 nM | > 10000 nM | 4100 nM | EC50 (CMS; [8]): 9000 nM; EC50 (CMK; [20]): 6800 nM |
|  |  |  | SCH 51344 | Inactive | Inactive | Inactive | Inactive | Inactive |  | Inactive | Inactive |  |  |  |  |

| Compound | EC50 (MOLM-13; [12]) | EC50 (U937; [13]) | EC50 (MV4-11 [2]) | average effective concentration, CMS (CMS; [3]) | average effective concentration, ML-2 (ML2; [4]) | average effective concentration, CHRF288-11 (CHRF288-11; [5]) | average effective concentration, M07e (M07e; [6]) | average effective concentration, MOLM-13 (MOLM-13; [4]) | average effective concentration, MV4-11 (MV4-11 [1]; [4]) | average effective concentration, U937 (U937; [7]) | average effective concentration, CMK (CMK; [4]) | EC50 (ML2; [9]) | EC50 (CHRF288-11; [10]) | EC50 (M07e; [11]) | also measured |
| --- | --- | --- | --- | --- | --- | --- | --- | --- | --- | --- | --- | --- | --- | --- | --- |
| Nc1cc(F)ccc1NC(=O)/C=C/c1cnn(C/C=C/c2ccccc2)c1 [RGFP966] | > 10000 nM | > 10000 nM | > 10000 nM |  |  |  |  |  |  |  |  | > 10000 nM | 7300 nM |  | EC50 (CMS; [8]): 9300 nM; EC50 (M07e; secondary high-throughput screen, […], read-out: average effective concentration, M07e): 10000 nM; EC50 (CMK; [20]): 6000 nM |
